From ChEMBL document CHEMBL3526022, “Which metabolites circulate?” (Drug Metab Dispos, 2013)
Where a name gives a salt, the structure may show the parent alone.

Legend:
[1] = Clearance in iv dosed patient with renal impairment; format: ADME, organism-based; conditions: human, in vivo
clinical [2] = conditions: human, in vivo, po
Homo sapiens [3] = experiment: Unbound hepatobiliary clearance in human at 4 mg, po twice daily for 8 days; format: ADME, organism-based; conditions: in vivo, 192 h
Homo sapiens [4] = experiment: Unbound renal clearance in human at 4 mg, po twice daily for 8 days; format: ADME, organism-based, Kidney; conditions: in vivo, 192 h
[5] = Systemic clearance in human at 4 mg, po twice daily for 8 days; format: ADME, organism-based; conditions: in vivo
Homo sapiens [6] = organism: Homo sapiens; experiment: Unbound renal clearance in human treated with propranolol; format: ADME, organism-based, Kidney; conditions: in vivo
[7] = Fraction unbound in human treated with propranolol; format: ADME, organism-based; conditions: in vivo
[8] = Systemic clearance in human treated with propranolol; format: ADME, organism-based; conditions: in vivo
Homo sapiens [9] = organism: Homo sapiens; experiment: Unbound hepatobiliary clearance in human treated with propranolol; format: ADME, organism-based; conditions: in vivo
Homo sapiens [10] = organism: Homo sapiens; experiment: Unbound hepatobiliary clearance in human treated with darifenacin; format: ADME, organism-based; conditions: in vivo
Homo sapiens [11] = organism: Homo sapiens; experiment: Unbound renal clearance in human treated with darifenacin; format: ADME, organism-based, Kidney; conditions: in vivo
[12] = Fraction unbound in human at 120 mg, po; format: ADME, organism-based; conditions: in vivo
[13] = Systemic clearance in human at 120 mg, po; format: ADME, organism-based; conditions: in vivo
Homo sapiens [14] = experiment: Unbound hepatobiliary clearance in human at 120 mg, po; format: ADME, organism-based; conditions: in vivo
[15] = Fraction unbound in human; format: ADME, organism-based; conditions: in vivo
[16] = Systemic clearance in human; format: ADME, organism-based; conditions: in vivo
clinical [17] = conditions: human, in vivo, iv
Homo sapiens [18] = organism: Homo sapiens; conditions: in vivo
Homo sapiens [19] = organism: Homo sapiens; conditions: in vivo; remark: listed apart in the source
[20] = Fraction unbound in healthy human at 10 mg, iv bolus dose and 25, 50 and 100 mg, po; format: ADME, organism-based; conditions: in vivo
Homo sapiens [21] = experiment: Unbound renal clearance in healthy human treated with chlorpromazine at 10 mg, iv bolus dose and 25, 50 and 100 mg, po; format: ADME, organism-based, Kidney; conditions: in vivo
Homo sapiens [22] = experiment: Unbound hepatobiliary clearance in healthy human treated with chlorpromazine at 10 mg, iv bolus dose and 25, 50 and 100 mg, po; format: ADME, organism-based; conditions: in vivo
[23] = Fraction unbound in healthy human treated with chlorpromazine at 10 mg, iv bolus dose and 25, 50 and 100 mg, po; format: ADME, organism-based; conditions: in vivo
[24] = Systemic clearance in healthy human treated with chlorpromazine at 10 mg, iv bolus dose and 25, 50 and 100 mg, po; format: ADME, organism-based; conditions: in vivo
Homo sapiens [25] = experiment: Unbound hepatobiliary clearance in human treated with dilitiazem at 120 mg, po; format: ADME, organism-based; conditions: in vivo

SMILES | pKa (physchem) | also measured
CN1CCN(c2ccccc2/C=C2\SCCN(c3ccc(Cl)c(Cl)c3)C2=O)CC1 [ELZASONAN] | 11.5 | 
O=C1CC2(CCCC2)CC(=O)N1CCCCN1CCN(c2ncccn2)CC1 [BUSPIRONE] | 12.5 | clearance [1]: 28 mL/min/kg
CC(C)C(=O)Nc1ccc([N+](=O)[O-])c(C(F)(F)F)c1 [FLUTAMIDE] | 12.9 | CL/F (clinical [2]): > 600 mL/min/kg
Cc1onc(-c2ccccc2)c1-c1ccc(S(N)(=O)=O)cc1 [VALDECOXIB] | 13.1 | 
Clc1ccc2c(c1)CCc1cccnc1C2=C1CCNCC1 [DESLORATADINE] | 9.27 | 
Cc1ccc(O)c([C@H](CCN(C(C)C)C(C)C)c2ccccc2)c1 [TOLTERODINE] | 14.7 | CL free (Homo sapiens [3]): 1190 mL/min/kg; CL free (Homo sapiens [4]): 1 mL/min/kg; CL/F [5]: 44 mL/min/kg
CC(C)(C)c1ccc(C(O)CCCN2CCC(C(O)(c3ccccc3)c3ccccc3)CC2)cc1 (stereo unspecified) [TERFENADINE] | 15 | 
COCc1c(C(C)C)nc(C(C)C)c(/C=C/[C@@H](O)C[C@@H](O)CC(=O)O)c1-c1ccc(F)cc1 [CERIVASTATIN] | 14.4 | 
CN(Cc1cc(Br)cc(Br)c1N)C1CCCCC1 [BROMHEXINE] | 15.1 | 
N#CC[C@H](C1CCCC1)n1cc(-c2ncnc3[nH]ccc23)cn1 [RUXOLITINIB] | 14.9 | 
CC(C)NCC(O)COc1ccc(O)c2ccccc12 (stereo unspecified) [4-HYDROXYPROPRANOLOL SULFATE] |  | CL free (Homo sapiens [6]): 5 mL/min/kg; fraction unbound [7]: 0.26; clearance [8]: 66 mL/min/kg; CL free (Homo sapiens [9]): 248 mL/min/kg
COc1ccnc(C[S+]([O-])c2nc3ccc(OC(F)F)cc3[nH]2)c1OC (stereo unspecified) [PANTOPRAZOLE] | 7.69 | 
CN1CC(=O)N2[C@H](c3ccc4c(c3)OCO4)c3[nH]c4ccccc4c3C[C@@H]2C1=O | 9.87 | 
Cc1c(O)cccc1C(=O)N[C@@H](CSc1ccccc1)[C@H](O)CN1C[C@H]2CCCC[C@H]2C[C@H]1C(=O)NC(C)(C)C | 8.57 | 
O[C@H](CNC[C@@H](O)[C@H]1CCc2cc(F)ccc2O1)[C@@H]1CCc2cc(F)ccc2O1 (relative stereo) | 14 | 
O=C(c1ccc(F)cc1)C1CCN(CCn2c(=O)[nH]c3ccccc3c2=O)CC1 [KETANSERIN] | 14.1 | 
Cc1ccc(-c2cc(C(F)(F)F)nn2-c2ccc(S(N)(=O)=O)cc2)cc1 [CELECOXIB] | 14.2 | 
CC(C)(O)c1ccccc1CC[C@@H](SCC1(CC(=O)O)CC1)c1cccc(/C=C/c2ccc3ccc(Cl)cc3n2)c1 [MONTELUKAST] | 15.9 | 
NC(=O)C(c1ccccc1)(c1ccccc1)[C@@H]1CCN(CCc2ccc3c(c2)C(O)CO3)C1 (stereo partly specified) |  | CL free (Homo sapiens [10]): 60 mL/min/kg; CL free (Homo sapiens [11]): 47 mL/min/kg
Clc1ccc2c(c1)C(N1CCNCC1)=Nc1ccccc1O2 [AMOXAPINE] | 11.2 | 
CN1C2CCCC1CC(NC(=O)c1nn(C)c3ccccc13)C2 (stereo unspecified) [GRANISETRON] | 8.9 | 

SMILES | pKa (physchem) | also measured
COc1ccc([C@@H]2Sc3ccccc3N(CCN(C)C)C(=O)[C@@H]2OC(C)=O)cc1 [DILTIAZEM] |  | fraction unbound [12]: 0.25; CL/F [13]: 12 mL/min/kg; CL free (Homo sapiens [14]): 48 mL/min/kg
OCCOCCN1CCN(C2=Nc3ccccc3Sc3ccccc32)CC1 [QUETIAPINE] | 11.2 | 
CC(C)NCC(O)COc1cccc2ccccc12 (stereo unspecified) [PROPRANOLOL] |  | fraction unbound [15]: 0.15; clearance [16]: 20 mL/min/kg
O=C1Nc2ccc(Cl)cc2[C@@](C#CC2CC2)(C(F)(F)F)O1 [EFAVIRENZ] | 7.18 | 
C[C@H](NC(=O)C(C)(C)Oc1ccc(C(F)(F)F)cn1)[C@@H](Cc1ccc(Cl)cc1)c1cccc(C#N)c1 [TARANABANT] | 15.1 | 
CNCCC=C1c2ccccc2CCc2ccccc21 [NORTRIPTYLINE] | 13.9 | 
CNCC[C@@H](Oc1ccccc1C)c1ccccc1 [ATOMOXETINE] | 10.3 | 
Cc1c(OCC(F)(F)F)ccnc1C[S+]([O-])c1nc2ccccc2[nH]1 (stereo unspecified) [LANSOPRAZOLE] | 11.2 | 
CCc1cc2c(cc1CC)CC(NC[C@H](O)c1ccc(O)c3[nH]c(=O)ccc13)C2 [INDACATEROL] | 14.6 | 
O=C(NCC1CCCCN1)c1cc(OCC(F)(F)F)ccc1OCC(F)(F)F (stereo unspecified) [FLECAINIDE] | 9.28 | 
Fc1ccc([C@@H]2CCNC[C@H]2COc2ccc3c(c2)OCO3)cc1 [PAROXETINE] | 10.3 | 
CNCC[C@H](Oc1cccc2ccccc12)c1cccs1 [DULOXETINE] | 9.97 | 
CCc1ccc(CCOc2ccc(CC3SC(=O)NC3=O)cc2)nc1 (stereo unspecified) [PIOGLITAZONE] | 13.7 | 
O=C(C1CCCCC1)N1CC(=O)N2CCc3ccccc3C2C1 (stereo unspecified) [PRAZIQUANTEL] | 15 | 
C#Cc1cccc(Nc2ncnc3cc(OCCOC)c(OCCOC)cc23)c1 [ERLOTINIB] | 13.9 | 
CC(C)CCC(=O)CC1c2ccccc2C(=O)N1c1ccc2ccc(Cl)nc2n1 (stereo unspecified) [PAGOCLONE] | 15 | 
O=C(O[C@@H]1C[C@@H]2C[C@H]3C[C@H](C1)N2CC3=O)c1c[nH]c2ccccc12 [DOLASETRON] | 14.6 | 
COc1ccc(CCN2CCC(Nc3nc4ccccc4n3Cc3ccc(F)cc3)CC2)cc1 [ASTEMIZOLE] | 10.1 | 
CN(CCOc1ccc(CC2SC(=O)NC2=O)cc1)c1ccccn1 (stereo unspecified) [ROSIGLITAZONE] | 10.3 | 
CN(C)CCCN1c2ccccc2Sc2ccc(Cl)cc21 [CHLORPROMAZINE] |  | clearance (clinical [17]): 18.3 mL/min/kg; CL free (Homo sapiens [18]): 1 mL/min/kg; CL free (Homo sapiens [19]): 14000 mL/min/kg; Fu [20]: 0.0013
CN(C)CCCN1c2ccc(O)cc2Sc2ccc(Cl)cc21 [7-HYDROXYCHLORPROMAZINE] |  | CL free (Homo sapiens [21]): 6 mL/min/kg; CL free (Homo sapiens [22]): 400 mL/min/kg; fraction unbound [23]: 0.015; clearance [24]: 6.1 mL/min/kg

SMILES | pKa (physchem) | also measured
COc1ccccc1Oc1c(NS(=O)(=O)c2ccc(C(C)(C)C)cc2)nc(-c2ncccn2)nc1OCCO [BOSENTAN] | 8.36 | 
C#C[C@]1(O)CC[C@H]2[C@@H]3[C@H](C)CC4=C(CCC(=O)C4)[C@H]3CC[C@@]21C [TIBOLONE] | 15 | 
CCOc1cc([C@@H](CS(C)(=O)=O)N2C(=O)c3cccc(NC(C)=O)c3C2=O)ccc1OC | 9.8 | 
CCC(C)n1ncn(-c2ccc(N3CCN(c4ccc(OCC5COC(Cn6cncn6)(c6ccc(Cl)cc6Cl)O5)cc4)CC3)cc2)c1=O (stereo unspecified) [ITRACONAZOLE] | 15 | 
CCOc1cc(CC(=O)N[C@@H](CC(C)C)c2ccccc2N2CCCCC2)ccc1C(=O)O [REPAGLINIDE] | 14.8 | 
CNCCN1C(=O)[C@H](OC(C)=O)[C@H](c2ccc(OC)cc2)Sc2ccccc21 |  | CL free (Homo sapiens [25]): 25 mL/min/kg
COc1ccc2c(c1)[C@]13CCCC[C@@H]1[C@H](C2)N(C)CC3 [DEXTROMETHORPHAN] | 10.1 | 
CCc1nn(CCCN2CCN(c3cccc(Cl)c3)CC2)c(=O)n1CCOc1ccccc1 [NEFAZODONE] | 13.8 | 
CC(NC(C)(C)C)C(=O)c1cccc(Cl)c1 (stereo unspecified) [BUPROPION] | 15.4 | 
COc1ccccc1OCC(O)CN1CCN(CC(=O)Nc2c(C)cccc2C)CC1 (stereo unspecified) [RANOLAZINE] | 9.59 | 
NC(=O)C(c1ccccc1)(c1ccccc1)[C@@H]1CCN(CCc2ccc3c(c2)CCO3)C1 [DARIFENACIN] | 13.5 | fraction unbound [15]: 0.02
COc1ccc(C(=O)Nc2ccccc2CCC2CCCCN2C)cc1 (stereo unspecified) [ENCAINIDE] | 8.34 | 
COc1ccc(-n2nc(C(N)=O)c3c2C(=O)N(c2ccc(N4CCCCC4=O)cc2)CC3)cc1 [APIXABAN] | 8.56 | 
COc1cccc(C2(O)CCCCC2CN(C)C)c1 (racemic) [TRAMADOL] | 10 | 
CCc1cccc2cc(C(O)CNC(C)(C)C)oc12 (stereo unspecified) [BUFURALOL] | 14.3 | 
COc1ccc2[nH]c([S+]([O-])Cc3ncc(C)c(OC)c3C)nc2c1 (stereo unspecified) [OMEPRAZOLE] | 13.2 | 
Cc1ncc2n1-c1ccc(Cl)cc1C(c1ccccc1F)=NC2 [MIDAZOLAM] | 13.6 | 
CCCSc1nc(N[C@@H]2C[C@H]2c2ccc(F)c(F)c2)c2nnn([C@@H]3C[C@H](OCCO)[C@@H](O)[C@H]3O)c2n1 [TICAGRELOR] | 14.3 | 
COc1ccc2c3c1O[C@H]1[C@@H](O)C=C[C@H]4[C@@H](C2)N(C)CC[C@@]341 [CODEINE] | 9.48 | 
CCn1cc(C(=O)O)c(=O)c2ccc(C)nc21 [NALIDIXIC ACID] | 13 | 
